Here are results for 12 molecules from ChEMBL document CHEMBL1201862, “PubChem BioAssay data set” (2004).

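Briefly, cells in 96-well plates were exposed to five compound concentrations for 48 h, and endpoints were estimated by linear interpolation. GI50 = concentration required for 50% inhibition of growth.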 Calls of active or inactive are those of the source. No stated cut-off is given here; in the data, active = GI50 up to about 1.1 µM and inactive = higher.

Among the test systems are CCRF-CEM; COLO 205; SK-OV-3; TK-10; SR; SW-620; KM-20L2; SF-539; KM12; OVCAR-5; UACC-257; SK-MEL-2; HCT-15; RPMI-8226; MOLT-4; Malme-3M; NCI-H23; DLD-1.
What all share (assay): NCI anticancer screen, dose series, 48 h

Regarding `C/C(CN1C(=O)c2ccccc2C1=O)=N\NS(=O)(=O)c1cccc(C(=O)O)c1`, the GI50 with CCRF-CEM, in the assay on COLO 205, in the assay on SK-OV-3, in the assay with TK-10, in the assay with SR and with SW-620 was > 100 µM (inactive) in each case. The GI50 with KM-20L2, in the assay on SF-539, in the assay with KM12, with OVCAR-5, in the assay on UACC-257 and in the assay on SK-MEL-2 was > 100 µM (inactive) in each case. The GI50 was more than 100 µM in the assay on HCT-15; > 100 µM (inactive) in the assay with RPMI-8226; > 100 µM (inactive) with MOLT-4; > 100 µM (inactive) in the assay on Malme-3M; > 100 µM (inactive) with NCI-H23; > 100 µM (inactive) with DLD-1.

For `Cn1cnc(CCc2ccccc2)n1`, the GI50 in the assay with CCRF-CEM, in the assay with COLO 205, with SK-OV-3, with TK-10, in the assay with SR and in the assay with SW-620 was > 100 µM (inactive) each time. For the same molecule, the GI50 with KM-20L2, in the assay with SF-539, with KM12, in the assay on OVCAR-5, in the assay with UACC-257 and with SK-MEL-2 was > 100 µM (inactive) throughout. For the same molecule, the GI50 is more than 100 µM in the assay with HCT-15; > 100 µM (inactive) with RPMI-8226; > 100 µM (inactive) with MOLT-4; > 100 µM (inactive) in the assay on Malme-3M; > 100 µM (inactive) in the assay with NCI-H23; > 100 µM (inactive) in the assay with DLD-1.

Turning to `CCOC(=O)c1c2ccc(/C=C/c3ccccc3)ccc-2c(C(=O)OCC)c1N`, the GI50 with CCRF-CEM was > 100 µM (inactive); with COLO 205 it was > 100 µM (inactive); in the assay on SK-OV-3 it was 86.1 µM (inactive); in the assay on TK-10, > 100 µM (inactive); with SR it was 4.2 µM (inactive); in the assay with SW-620, > 100 µM (inactive). Moreover, the GI50 was > 100 µM (inactive) in the assay with KM-20L2; > 100 µM (inactive) with SF-539; 54.6 µM (inactive) in the assay with KM12; > 100 µM (inactive) in the assay with OVCAR-5; > 100 µM (inactive) in the assay on UACC-257; > 100 µM (inactive) in the assay on SK-MEL-2. The GI50 was more than 100 µM with HCT-15; > 100 µM (inactive) with MOLT-4; > 100 µM (inactive) in the assay with Malme-3M; 32 µM (inactive) with NCI-H23; > 100 µM (inactive) in the assay on DLD-1.

Take `CC1(OCc2ccccc2)C(=O)N2C1NCC2(C)C` (stereo unspecified): the GI50 in the assay with CCRF-CEM, in the assay with COLO 205, in the assay with TK-10, in the assay on SR, in the assay on SW-620 and with KM-20L2 was > 100 µM (inactive) throughout. Also, the GI50 in the assay with SF-539 was > 100 µM (inactive); in the assay on UACC-257 it was > 100 µM (inactive); with SK-MEL-2, > 100 µM (inactive); with HCT-15 it was more than 100 µM; with RPMI-8226 it was > 100 µM (inactive); in the assay with MOLT-4, > 100 µM (inactive). In addition, the GI50 in the assay on Malme-3M, in the assay on NCI-H23 and in the assay with DLD-1 was > 100 µM (inactive) each time.

Take `Cc1cc(N(CCC#N)CCC#N)ccc1/C=C\C(=O)Nc1ccccc1`: the GI50 with CCRF-CEM is > 100 µM (inactive); in the assay on COLO 205, > 100 µM (inactive); in the assay on SK-OV-3, > 100 µM (inactive); in the assay on TK-10, > 100 µM (inactive); in the assay with SW-620, > 100 µM (inactive); in the assay with KM-20L2, 1.07 µM (active). Besides, the GI50 is 76.7 µM (inactive) with SF-539; 97.5 µM (inactive) in the assay on KM12; 30.3 µM (inactive) in the assay with OVCAR-5; > 100 µM (inactive) in the assay with UACC-257; > 100 µM (inactive) in the assay with SK-MEL-2; 0.887 µM in the assay with HCT-15. For the same molecule, the GI50 in the assay with RPMI-8226 is > 100 µM (inactive); with MOLT-4 it was > 100 µM (inactive); with Malme-3M it was > 100 µM (inactive); with NCI-H23, > 100 µM (inactive); in the assay with DLD-1, 8.17 µM (inactive).

With `CO[C@@]1(c2ccccc2)O[C@H]2OCCC2[C@H]1c1ccc(Cl)cc1` (stereo partly specified), the GI50 with COLO 205 was 20 µM (inactive); in the assay with TK-10, 40.8 µM (inactive); in the assay on SR, 29 µM (inactive); in the assay on SW-620, 32.7 µM (inactive); in the assay on KM-20L2, 32.1 µM (inactive); with SF-539, 51.6 µM (inactive). Also, the GI50 in the assay on KM12 is 47 µM (inactive); in the assay with OVCAR-5 it was 29.1 µM (inactive); with UACC-257, 22 µM (inactive); with SK-MEL-2, 31.8 µM (inactive); with HCT-15, 36.1 µM; in the assay with RPMI-8226 it was 34 µM (inactive). The GI50 with MOLT-4 was 17.9 µM (inactive); with Malme-3M it was 28.5 µM (inactive); in the assay on NCI-H23, 30.4 µM (inactive); with DLD-1, 37.7 µM (inactive).

For the molecule `O=C(CC1S/C(=N\c2ccccc2Cl)NC1=O)Nc1ccc(Cl)cc1` (stereo unspecified), the GI50 was > 100 µM (inactive) with CCRF-CEM; 26.4 µM (inactive) in the assay on COLO 205; > 100 µM (inactive) in the assay with SK-OV-3; > 100 µM (inactive) in the assay with TK-10; 31.3 µM (inactive) in the assay with SR; 10.6 µM (inactive) in the assay with SW-620. Further, the GI50 in the assay on KM-20L2, with SF-539, with KM12, with OVCAR-5, in the assay with UACC-257 and in the assay on SK-MEL-2 was > 100 µM (inactive) throughout. Moreover, the GI50 in the assay on HCT-15 was 16.3 µM; in the assay with Malme-3M it was > 100 µM (inactive); in the assay with NCI-H23, > 100 µM (inactive); in the assay with DLD-1, > 100 µM (inactive).

With `O=C1C[C@@H]2[C@@H](C=CC23CC3)N1O`, the GI50 with CCRF-CEM, with COLO 205, with SK-OV-3, in the assay on TK-10, in the assay with SW-620 and in the assay with KM-20L2 was > 100 µM (inactive) each time. Also, the GI50 with SF-539, with KM12, with OVCAR-5, in the assay on UACC-257, with SK-MEL-2 and with RPMI-8226 was > 100 µM (inactive) in each case. Moreover, the GI50 with MOLT-4, with Malme-3M, with NCI-H23 and in the assay on DLD-1 was > 100 µM (inactive) each time.

As for `Cc1cc(C)c(C(=O)O)c(SSc2cc(C)cc(C)c2C(=O)O)c1`, the GI50 in the assay with CCRF-CEM is 57.7 µM (inactive); in the assay on COLO 205, > 100 µM (inactive); with SK-OV-3, > 100 µM (inactive); with TK-10, > 100 µM (inactive); with SR, > 100 µM (inactive); with SW-620 it was > 100 µM (inactive). For the same molecule, the GI50 with KM-20L2, in the assay with SF-539, in the assay with KM12, in the assay with OVCAR-5, in the assay with UACC-257 and in the assay with SK-MEL-2 was > 100 µM (inactive) throughout. The GI50 in the assay on MOLT-4, in the assay with Malme-3M, with NCI-H23 and with DLD-1 was > 100 µM (inactive) throughout.

Consider `CSc1nc(SC)c2c(C#N)n[nH]c2n1`, for which the GI50 in the assay with CCRF-CEM is > 100 µM (inactive); in the assay on COLO 205, > 100 µM (inactive); in the assay with SK-OV-3, > 100 µM (inactive); with TK-10, 49.4 µM (inactive); in the assay on SR, > 100 µM (inactive); with SW-620, > 100 µM (inactive). Further, the GI50 with KM-20L2 is > 100 µM (inactive); with SF-539 it was > 100 µM (inactive); with KM12, > 100 µM (inactive); in the assay on UACC-257, > 100 µM (inactive); in the assay on SK-MEL-2 it was > 100 µM (inactive); in the assay on HCT-15, more than 100 µM. Also, the GI50 with RPMI-8226, in the assay on MOLT-4, with Malme-3M, in the assay with NCI-H23 and with DLD-1 was > 100 µM (inactive) throughout.

As for `COc1ccc(/C=C2\N=C(c3ccccc3)N(Nc3nnc(NN4C(=O)/C(=C/c5ccc(OC)cc5)N=C4c4ccccc4)c4ccccc34)C2=O)cc1`, the GI50 in the assay with CCRF-CEM was 30.7 µM (inactive); in the assay on COLO 205, > 100 µM (inactive); with SR, 26.6 µM (inactive); in the assay on SW-620, 55.2 µM (inactive); with KM-20L2, 53.2 µM (inactive); with SF-539, 70.6 µM (inactive). For the same molecule, the GI50 in the assay with KM12 was 17.2 µM (inactive); with OVCAR-5, > 100 µM (inactive); in the assay on UACC-257 it was > 100 µM (inactive); in the assay on HCT-15, 40.8 µM; in the assay on RPMI-8226 it was 26.4 µM (inactive); in the assay with MOLT-4, 29.6 µM (inactive). Further, the GI50 is > 100 µM (inactive) in the assay with NCI-H23 and 42.3 µM (inactive) with DLD-1.

As to `Clc1cc(Cl)c2ns[s+]c2c1Cl`, the GI50 in the assay with CCRF-CEM, in the assay on COLO 205, in the assay on SK-OV-3, with TK-10, in the assay with SR and in the assay on SW-620 was > 100 µM (inactive) in each case. Besides, the GI50 with KM-20L2, in the assay with SF-539, in the assay on KM12, in the assay with OVCAR-5, in the assay with UACC-257 and in the assay with SK-MEL-2 was > 100 µM (inactive) each time. Also, the GI50 in the assay on MOLT-4 is > 100 µM (inactive); in the assay with Malme-3M, 37.8 µM (inactive); with NCI-H23 it was 0.132 µM (active); in the assay with DLD-1, > 100 µM (inactive).
